Test results as given in US20090233993A1, “COMPOSITIONS AND METHODS FOR INHIBITING GSK3 ACTIVITY AND USES THEREOF” (Burnham Institute for Medical Research, priority 2008, published 2009).

Tests used:
PKA = PKA inhibitor H89 treatment of FG01-transfected N2aSwe cells; assay type: cell-based, mouse; conditions: H89 2 μM, 4 hrs, FG01-transfected N2a/Swe cells
Description: After 48 hr incubation, cell media were changed to Opti-MEM (Invitrogen) containing DMSO or a PKA activity inhibitor H89 (2 μM) and cells were incubated for additional 4 hrs. The cell media were used for Aβ immunoprecipitation-Western blotting and cell lysates were subjected to Western blotting for p-CREB (substrate for PKA) and p-GSK3β. As shown, inhibiting PKA activity with H89 prevented serine phosphorylation of CREB and GSK3β by FG01.
N2aSwe cells were transfected with control vector or FG01 and then equally split. Four hours before collection, cells were treated with the GSK-3 inhibitor lithium chloride (5 mM) or sodium chloride (5 mM, as control). Alternatively, cells were treated with a PKA inhibitor H89 at 10 μM or with DMSO for control.

FG01 = FG01 RNA interference in N2aSwe cells; assay type: cell-based, mouse
From the text: Cells were collected for mRNA extraction, reverse-transcription, and PCR amplification with FG01 specific primers to study the knockdown efficiency (upper panel), n=3. Alternatively, cells were lysed and cell lysates subjected to Western blotting for p-CREB, CREB, p-GSK3β, and GSK3β. Aβ in conditioned media was subjected to immunoprecipitation-Western blotting (lower panels). As shown, knockdown of FG01 coincided with a concomitant decrease in GSK3β phosphorylation (inactivation). **: p<0.01. […] Moreover, as PKA is a cAMP-dependent protein kinase, FG01 is likely having this effect through adenylyl cyclase (AC) activation of cAMP.
The mouse FG01 siRNA used was: 5′-[…]-3′ (SEQ ID NO:20). The control siRNA was from Invitrogen. siRNA was transfected into N2a cells using Lipofectamine RNAiMAX reagent (Invitrogen), following the manufacturer's protocol. After FG01 RNA interference, total RNA was extracted from N2a cells by Trizol reagent (Invitrogen). After reverse transcription into first strand cDNA using standard conditions, samples were analyzed independently by real-time PCR using an iCycler iQ with SYBR green supermix (Bio-Rad). The FG01 primer pair used for amplification was: 5′: […] (SEQ ID NO:21) and 3′: […] (SEQ ID NO:22). A pair of β-actin primers served as controls (Zhang et al., 2007).

[1] = downregulation of endogenous FG01 in N2aSwe cells

`O=S(=O)(NCCNC/C=C/c1ccc(Br)cc1)c1cccc2cnccc12` [H89, reference compound] was tested, and the “serine phosphorylation of CREB by FG01” value (PKA) was “prevented” and the “serine phosphorylation of GSK3β by FG01” value (PKA) was “prevented”.
In the case of “FG01 siRNA: mouse FG01 siRNA 5′-UACUGUUUGUCAUGCCACUUCUGAU-3′ (SEQ ID NO:20) (listed as RNA, chemistry not given here)”, the Aβ generation (FG01; [1]) is reported as “increased”, the CREB phosphorylation (FG01; [1]) is reported as “dramatically reduced” and the GSK-3 activity (FG01; [1]) is reported as “increased”. For the same molecule, the “GSK3β phosphorylation (inactivation)” value (FG01; knockdown of FG01 in N2a/Swe cells vs scramble siRNA) was “decrease”.
